For assay [1], the system named is 4mm punch wound in Balb/c mice. The experiment in a line: Topical applications on 4 mm punch wounds, visual contraction of wounds (Example 5). The class given is in vivo, mouse. The conditions noted are these: for Relative efficacy (wound contraction): topical agent on wound, uracil 100 μM, two weeks. As for the experimental part:
Balb/c mice were divided into three dietary groups (F=normal mouse chow; NF=nucleotide free mouse chow; and NFR=nucleotide free mouse chow supplemented with yeast RNA). Each group was fed before initiation of wounds. After 4 weeks of feeding, a 4mm punch wound was created on the dorsal surface of each mouse, using a 4mm biopsy punch. The wounds were coated with four different topical agents: 1) saline; 2) uracil {100 μM concentration); 3) saline+CCM; and 4) Uracil+CCM (CCM=crosslinked collagen mesh). CCM is ‘Collagen Permeable Membrane’ from Accurate Chemical & Scientific Corporation, catalog no. YIC 152299. Four mm size circles were soaked with appropriate nucleotide or saline solution (4mm punch wounds) and used to dress the wounds.
Twelve groups were formed from these combinations (n=3). Mice were continued on their respective diets. Wounds were observed visually and photographed at four different times during the experimental period of two weeks.
A record was made of the progressive contraction of the wounds and area among the various dietary and treatment groups.

In assay [2] the test system is wound cylinder of PTFE in Balb/C mice. The experiment in a line: Wound hydroxyproline content in PTFE wound cylinder, adenine/uracil/RNA diets (Example 2, FIG. 1). The class given is in vivo, mouse. Particulars: for amount of OHP/cm PTFE over both the nucleotide free and the non-supplemented diets: diet at least 30 days before implantation, tenth post-operative day. From the text:
Twenty-five Balb/C mice were divided into five test groups (n=5) and housed in groups in the animal care facilities. Each group received one of the following diets ad libertum: F—normal mouse chow, NF—nucleotide free diet, NFR—yeast RNA supplemented diet, NFA—adenine supplemented diet, and NFU—uracil supplemented diet. All groups received these diets for at least 30 days prior to wound cylinder implantation. All animals received water ad libitum.
Polytetrafluorethylene (PTFE, Impra Vascular Graft, 3 mm lumen, […]) wound cylinders (1.5 cm long) were placed subcutaneously in the dorsal midline of each animal under general anesthesia (Methoxyflurane, inhalation). All animals were continued on their test diets. On the tenth post-operative day, all animals were euthanized by cervical dislocation and the would cylinders were removed for analysis.
Wound cylinders were analyzed for hydroxyproline (OHP) content using the method of Woessner. Briefly, approximately 1 cm segments of the wound cylinders were hydrolyzed in 0.5 ml 6 N HCl for 3 hours at 130 C. Samples were cooled and 0.5 ml aliquots were neutralized with the appropriate volume of 1 N NaOH. Each sample was diluted to 5.25 ml with H2O in order to reduce the total NaCl concentration to below 0.4 M. Each sample was then reacted as described by Woessner.

As for `OC[C@H]1O[C@@H](n2cnc3c(O)ncnc32)[C@H](O)[C@@H]1O` [inosine], in assay [1] (100 μM as topical agent in place of uracil), the “results compared with uracil as topical agent” value is on record as “no significant differences”.

For `O=c1cc[nH]c(=O)[nH]1` [uracil], the figures for the “Relative efficacy (wound contraction)” value in assay [1] (Diet F (normal mouse chow)), in assay [1] (Diet NF (nucleotide free chow)) and in assay [1] (Diet NFR (yeast RNA supplemented)) were “moderate”, “minimal” and “moderate”, respectively. Also, the “amount of OHP/cm PTFE over both the nucleotide free and the non-supplemented diets” value in assay [2] was “increased”.

Regarding `Nc1ncnc2nc[nH]c12` [Adenine, adenine], in assay [2], the “fold increase of the amount of OHP in the wound” value was “close to two times”; the “significance of OHP increase over the non-supplemented diet” value is given as “statistically significant”; the “significance of OHP increase over the nucleotide free diet” value is recorded as “significant”; the “amount of OHP/cm PTFE over both the nucleotide free and the non-supplemented diets” value is “increased”.

The values are drawn from patent publication US6342484B1, “Method and compositions for promotion of wound treatment” (Board of Regents, The University of Texas Systems, priority 1993, dated 2002).
